# US4837241A (priority 1986, dated 1989)
# Key:
# [1] = molecular target: muscarinic acetylcholine receptors; format: binding, rat (male Wistar); conditions: 3H-QNB 1 nM; whole forebrain membranes, male Wistar rats; 37° C., 20 min, pH 7.1; non-specific: atropine 1 μg/ml
# [2] = background, in words; cited from earlier work
# [3] = background, in words; cited from earlier work; remark: listed apart in the source
# [4] = system: muscarinic cholinergic; conditions: background, in words; cited from earlier work
# [5] = system: muscarinic; conditions: background, in words; cited from earlier work
SMILES,QNB binding Inhibition in vitro (IC50) [1] [µg/mL],other results
C1=C(c2nc(C3CC3)no2)CNCC1,4.7,
CC(C)c1noc(C2=CCCN(C)C2)n1,4.9,
CN1CCC=C(c2nc(C3CC3)no2)C1,2.0,
CCCc1nc(C2=CCCN(C)C2)no1,3.2,
"COC(=O)C1=CCCN(C)C1 [arecoline, methyl 1-methyl-1,2,5,6-tetrahydropiperidine-3-carboxylate]",,biological half life [2]: very short biological half life; toxicity [3]: rather toxic compound; cholinergic agonist [4]: cholinergic agonist; separation between central and peripheral muscarinic effects [5]: small separation between central and peripheral muscarinic effects
CCCCc1noc(C2=CCC(C)N(C)C2)n1 (centres unmarked),3.3,
CCc1noc(C2=CC(C)CNC2)n1 (centres unmarked),7.5,
CCc1noc(C2=CCCN(C)C2)n1,3.5,
